SMILES strings stand for the structures. Active and inactive are the calls of the source. Bounds are passed on as bounds.

Common to all, as to type: functional
In assay [1] the target is T1, Sentrin-specific protease 8 (Homo sapiens, UniProt Q96LD8).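 Further: luminescence read-out of SENP8 inhibition, dose-response confirmation following an ultra-high-throughput screen.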
T1 sequence (Q96LD8 whole entry): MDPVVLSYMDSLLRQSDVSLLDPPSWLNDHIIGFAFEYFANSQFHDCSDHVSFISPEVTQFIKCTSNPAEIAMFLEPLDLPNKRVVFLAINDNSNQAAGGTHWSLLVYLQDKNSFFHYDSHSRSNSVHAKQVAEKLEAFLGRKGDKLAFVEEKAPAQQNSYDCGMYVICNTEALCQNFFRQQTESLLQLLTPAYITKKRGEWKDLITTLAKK

Assay [2] deals with Cyclin-dependent kinase 9 (Homo sapiens, UniProt P50750).
The target in assay [3] is T2, Serine/threonine-protein kinase D3 (Homo sapiens, UniProt O94806).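 Further: determined within a kinase panel screen, with PRKCN as the panel member.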
T2 sequence (O94806 whole entry): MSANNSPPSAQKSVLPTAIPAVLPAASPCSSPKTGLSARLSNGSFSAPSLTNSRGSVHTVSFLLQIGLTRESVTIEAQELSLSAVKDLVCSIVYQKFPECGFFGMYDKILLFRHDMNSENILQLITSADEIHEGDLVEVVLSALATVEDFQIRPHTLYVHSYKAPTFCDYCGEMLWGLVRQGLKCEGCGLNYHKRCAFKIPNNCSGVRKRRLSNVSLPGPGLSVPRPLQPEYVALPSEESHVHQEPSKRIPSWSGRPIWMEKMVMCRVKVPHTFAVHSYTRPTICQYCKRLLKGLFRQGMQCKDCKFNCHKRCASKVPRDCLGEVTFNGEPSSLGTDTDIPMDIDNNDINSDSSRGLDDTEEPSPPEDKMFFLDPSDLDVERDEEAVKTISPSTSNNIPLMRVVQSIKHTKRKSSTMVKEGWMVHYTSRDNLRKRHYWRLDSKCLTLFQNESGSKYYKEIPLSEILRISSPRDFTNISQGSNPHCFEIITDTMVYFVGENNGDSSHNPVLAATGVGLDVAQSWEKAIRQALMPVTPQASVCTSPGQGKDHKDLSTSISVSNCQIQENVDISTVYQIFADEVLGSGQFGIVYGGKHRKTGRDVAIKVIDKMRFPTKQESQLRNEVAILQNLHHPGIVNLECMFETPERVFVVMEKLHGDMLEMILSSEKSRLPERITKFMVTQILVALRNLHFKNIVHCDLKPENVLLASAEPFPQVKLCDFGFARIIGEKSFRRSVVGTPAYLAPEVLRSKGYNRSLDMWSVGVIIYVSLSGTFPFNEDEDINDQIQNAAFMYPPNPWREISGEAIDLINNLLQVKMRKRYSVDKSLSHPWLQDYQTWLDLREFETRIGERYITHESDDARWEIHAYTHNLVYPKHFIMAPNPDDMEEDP

Assay [4] addresses Dual specificity protein kinase CLK4 (Homo sapiens, UniProt Q9HAZ1).
In assay [5] the target is Dual specificity tyrosine-phosphorylation-regulated kinase 1B (Homo sapiens, UniProt Q9Y463). Put plainly: Navigating the Kinome. Panel member name: DYRK1B.
Assay [6] concerns the target 5'-AMP-activated protein kinase catalytic subunit alpha-1 (Homo sapiens, UniProt Q13131).
Assay [7] addresses T3, Receptor-type tyrosine-protein kinase FLT3 (Homo sapiens, UniProt P36888).
T3 sequence (P36888 whole entry): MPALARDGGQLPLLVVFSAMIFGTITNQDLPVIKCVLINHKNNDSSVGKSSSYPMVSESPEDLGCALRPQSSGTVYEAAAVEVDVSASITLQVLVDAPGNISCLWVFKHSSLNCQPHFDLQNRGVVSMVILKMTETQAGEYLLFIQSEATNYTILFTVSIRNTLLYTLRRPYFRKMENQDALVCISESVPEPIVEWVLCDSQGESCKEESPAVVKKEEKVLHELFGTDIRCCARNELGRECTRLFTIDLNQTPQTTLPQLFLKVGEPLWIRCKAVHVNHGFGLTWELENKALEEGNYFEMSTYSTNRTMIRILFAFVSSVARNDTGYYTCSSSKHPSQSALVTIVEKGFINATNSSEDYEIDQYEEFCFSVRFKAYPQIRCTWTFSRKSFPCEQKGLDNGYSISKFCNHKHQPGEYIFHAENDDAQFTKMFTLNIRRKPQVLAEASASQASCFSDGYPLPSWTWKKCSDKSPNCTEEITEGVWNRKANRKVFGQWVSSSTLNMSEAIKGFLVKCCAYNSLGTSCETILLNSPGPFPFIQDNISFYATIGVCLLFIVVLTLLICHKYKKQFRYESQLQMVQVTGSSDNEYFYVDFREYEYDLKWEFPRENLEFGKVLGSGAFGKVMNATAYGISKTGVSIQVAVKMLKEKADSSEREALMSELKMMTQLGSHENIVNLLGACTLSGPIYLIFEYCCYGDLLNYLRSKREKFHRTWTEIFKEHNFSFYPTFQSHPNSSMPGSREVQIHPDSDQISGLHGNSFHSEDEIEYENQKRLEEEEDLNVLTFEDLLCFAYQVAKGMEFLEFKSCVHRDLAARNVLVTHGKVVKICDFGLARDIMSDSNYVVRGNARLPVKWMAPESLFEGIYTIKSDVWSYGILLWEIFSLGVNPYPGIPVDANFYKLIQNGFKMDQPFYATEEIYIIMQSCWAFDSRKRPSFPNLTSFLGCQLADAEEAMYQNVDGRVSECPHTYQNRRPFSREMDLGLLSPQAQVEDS

Assay [8] concerns the target Cyclin-dependent kinase 5 (Homo sapiens, UniProt Q00535).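 Further: CDK5 measured as one member of a kinase profiling panel.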
Assay [9] deals with Leucine-rich repeat serine/threonine-protein kinase 2 (Homo sapiens, UniProt Q5S007).
The target in assay [10] is Vascular endothelial growth factor receptor 2 (Homo sapiens, UniProt P35968).

Sequence of Cyclin-dependent kinase 5 (Q00535 whole entry): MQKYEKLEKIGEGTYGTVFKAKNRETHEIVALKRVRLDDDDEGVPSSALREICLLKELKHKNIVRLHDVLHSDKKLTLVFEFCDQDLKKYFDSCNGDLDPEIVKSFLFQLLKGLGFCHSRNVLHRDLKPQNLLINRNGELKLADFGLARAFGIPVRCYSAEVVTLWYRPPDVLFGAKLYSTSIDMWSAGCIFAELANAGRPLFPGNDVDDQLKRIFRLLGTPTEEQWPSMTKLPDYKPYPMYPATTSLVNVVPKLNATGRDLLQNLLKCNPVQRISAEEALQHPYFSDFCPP
Sequence of Cyclin-dependent kinase 9 (P50750 whole entry): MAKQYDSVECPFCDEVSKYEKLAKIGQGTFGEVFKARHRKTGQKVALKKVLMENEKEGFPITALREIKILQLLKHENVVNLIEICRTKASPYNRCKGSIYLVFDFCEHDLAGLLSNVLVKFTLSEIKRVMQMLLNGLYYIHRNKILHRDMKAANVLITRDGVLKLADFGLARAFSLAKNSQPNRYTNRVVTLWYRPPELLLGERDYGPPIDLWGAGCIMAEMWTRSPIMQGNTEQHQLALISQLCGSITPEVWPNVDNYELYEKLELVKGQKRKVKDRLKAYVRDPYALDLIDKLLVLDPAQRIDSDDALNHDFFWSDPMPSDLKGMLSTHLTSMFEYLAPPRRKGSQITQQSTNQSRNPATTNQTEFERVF
Sequence of Dual specificity tyrosine-phosphorylation-regulated kinase 1B (Q9Y463 whole entry): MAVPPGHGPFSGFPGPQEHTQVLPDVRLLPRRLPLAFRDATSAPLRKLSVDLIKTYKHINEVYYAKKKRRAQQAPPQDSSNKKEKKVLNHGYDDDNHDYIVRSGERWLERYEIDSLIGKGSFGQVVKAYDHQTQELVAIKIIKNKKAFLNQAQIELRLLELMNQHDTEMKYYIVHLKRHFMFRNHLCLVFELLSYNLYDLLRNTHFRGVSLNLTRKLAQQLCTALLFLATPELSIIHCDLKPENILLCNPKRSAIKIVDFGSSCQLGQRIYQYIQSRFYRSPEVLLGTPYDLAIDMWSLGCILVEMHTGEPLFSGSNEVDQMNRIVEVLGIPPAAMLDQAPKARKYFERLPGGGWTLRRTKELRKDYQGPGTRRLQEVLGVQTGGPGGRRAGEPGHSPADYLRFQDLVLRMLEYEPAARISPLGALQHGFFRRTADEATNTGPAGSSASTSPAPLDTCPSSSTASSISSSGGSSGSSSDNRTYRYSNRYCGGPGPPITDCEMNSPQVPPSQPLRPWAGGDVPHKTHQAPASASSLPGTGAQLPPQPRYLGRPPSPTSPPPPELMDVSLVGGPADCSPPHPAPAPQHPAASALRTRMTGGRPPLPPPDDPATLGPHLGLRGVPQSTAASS
Sequence of 5'-AMP-activated protein kinase catalytic subunit alpha-1 (Q13131 whole entry): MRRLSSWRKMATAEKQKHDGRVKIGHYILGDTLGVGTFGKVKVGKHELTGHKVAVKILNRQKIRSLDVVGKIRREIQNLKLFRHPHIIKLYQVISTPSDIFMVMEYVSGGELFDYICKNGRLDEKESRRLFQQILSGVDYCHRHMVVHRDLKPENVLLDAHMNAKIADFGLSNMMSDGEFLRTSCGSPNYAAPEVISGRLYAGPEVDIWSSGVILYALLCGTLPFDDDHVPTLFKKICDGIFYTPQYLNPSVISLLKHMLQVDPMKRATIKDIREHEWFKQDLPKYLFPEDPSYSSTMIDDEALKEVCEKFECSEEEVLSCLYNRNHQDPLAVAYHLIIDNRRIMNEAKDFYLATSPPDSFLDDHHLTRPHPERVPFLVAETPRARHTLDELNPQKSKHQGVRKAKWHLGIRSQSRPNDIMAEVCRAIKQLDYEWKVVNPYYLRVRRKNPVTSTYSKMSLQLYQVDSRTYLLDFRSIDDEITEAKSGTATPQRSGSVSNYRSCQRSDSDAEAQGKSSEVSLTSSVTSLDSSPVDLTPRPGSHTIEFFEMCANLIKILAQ
Sequence of Leucine-rich repeat serine/threonine-protein kinase 2 (Q5S007 whole entry): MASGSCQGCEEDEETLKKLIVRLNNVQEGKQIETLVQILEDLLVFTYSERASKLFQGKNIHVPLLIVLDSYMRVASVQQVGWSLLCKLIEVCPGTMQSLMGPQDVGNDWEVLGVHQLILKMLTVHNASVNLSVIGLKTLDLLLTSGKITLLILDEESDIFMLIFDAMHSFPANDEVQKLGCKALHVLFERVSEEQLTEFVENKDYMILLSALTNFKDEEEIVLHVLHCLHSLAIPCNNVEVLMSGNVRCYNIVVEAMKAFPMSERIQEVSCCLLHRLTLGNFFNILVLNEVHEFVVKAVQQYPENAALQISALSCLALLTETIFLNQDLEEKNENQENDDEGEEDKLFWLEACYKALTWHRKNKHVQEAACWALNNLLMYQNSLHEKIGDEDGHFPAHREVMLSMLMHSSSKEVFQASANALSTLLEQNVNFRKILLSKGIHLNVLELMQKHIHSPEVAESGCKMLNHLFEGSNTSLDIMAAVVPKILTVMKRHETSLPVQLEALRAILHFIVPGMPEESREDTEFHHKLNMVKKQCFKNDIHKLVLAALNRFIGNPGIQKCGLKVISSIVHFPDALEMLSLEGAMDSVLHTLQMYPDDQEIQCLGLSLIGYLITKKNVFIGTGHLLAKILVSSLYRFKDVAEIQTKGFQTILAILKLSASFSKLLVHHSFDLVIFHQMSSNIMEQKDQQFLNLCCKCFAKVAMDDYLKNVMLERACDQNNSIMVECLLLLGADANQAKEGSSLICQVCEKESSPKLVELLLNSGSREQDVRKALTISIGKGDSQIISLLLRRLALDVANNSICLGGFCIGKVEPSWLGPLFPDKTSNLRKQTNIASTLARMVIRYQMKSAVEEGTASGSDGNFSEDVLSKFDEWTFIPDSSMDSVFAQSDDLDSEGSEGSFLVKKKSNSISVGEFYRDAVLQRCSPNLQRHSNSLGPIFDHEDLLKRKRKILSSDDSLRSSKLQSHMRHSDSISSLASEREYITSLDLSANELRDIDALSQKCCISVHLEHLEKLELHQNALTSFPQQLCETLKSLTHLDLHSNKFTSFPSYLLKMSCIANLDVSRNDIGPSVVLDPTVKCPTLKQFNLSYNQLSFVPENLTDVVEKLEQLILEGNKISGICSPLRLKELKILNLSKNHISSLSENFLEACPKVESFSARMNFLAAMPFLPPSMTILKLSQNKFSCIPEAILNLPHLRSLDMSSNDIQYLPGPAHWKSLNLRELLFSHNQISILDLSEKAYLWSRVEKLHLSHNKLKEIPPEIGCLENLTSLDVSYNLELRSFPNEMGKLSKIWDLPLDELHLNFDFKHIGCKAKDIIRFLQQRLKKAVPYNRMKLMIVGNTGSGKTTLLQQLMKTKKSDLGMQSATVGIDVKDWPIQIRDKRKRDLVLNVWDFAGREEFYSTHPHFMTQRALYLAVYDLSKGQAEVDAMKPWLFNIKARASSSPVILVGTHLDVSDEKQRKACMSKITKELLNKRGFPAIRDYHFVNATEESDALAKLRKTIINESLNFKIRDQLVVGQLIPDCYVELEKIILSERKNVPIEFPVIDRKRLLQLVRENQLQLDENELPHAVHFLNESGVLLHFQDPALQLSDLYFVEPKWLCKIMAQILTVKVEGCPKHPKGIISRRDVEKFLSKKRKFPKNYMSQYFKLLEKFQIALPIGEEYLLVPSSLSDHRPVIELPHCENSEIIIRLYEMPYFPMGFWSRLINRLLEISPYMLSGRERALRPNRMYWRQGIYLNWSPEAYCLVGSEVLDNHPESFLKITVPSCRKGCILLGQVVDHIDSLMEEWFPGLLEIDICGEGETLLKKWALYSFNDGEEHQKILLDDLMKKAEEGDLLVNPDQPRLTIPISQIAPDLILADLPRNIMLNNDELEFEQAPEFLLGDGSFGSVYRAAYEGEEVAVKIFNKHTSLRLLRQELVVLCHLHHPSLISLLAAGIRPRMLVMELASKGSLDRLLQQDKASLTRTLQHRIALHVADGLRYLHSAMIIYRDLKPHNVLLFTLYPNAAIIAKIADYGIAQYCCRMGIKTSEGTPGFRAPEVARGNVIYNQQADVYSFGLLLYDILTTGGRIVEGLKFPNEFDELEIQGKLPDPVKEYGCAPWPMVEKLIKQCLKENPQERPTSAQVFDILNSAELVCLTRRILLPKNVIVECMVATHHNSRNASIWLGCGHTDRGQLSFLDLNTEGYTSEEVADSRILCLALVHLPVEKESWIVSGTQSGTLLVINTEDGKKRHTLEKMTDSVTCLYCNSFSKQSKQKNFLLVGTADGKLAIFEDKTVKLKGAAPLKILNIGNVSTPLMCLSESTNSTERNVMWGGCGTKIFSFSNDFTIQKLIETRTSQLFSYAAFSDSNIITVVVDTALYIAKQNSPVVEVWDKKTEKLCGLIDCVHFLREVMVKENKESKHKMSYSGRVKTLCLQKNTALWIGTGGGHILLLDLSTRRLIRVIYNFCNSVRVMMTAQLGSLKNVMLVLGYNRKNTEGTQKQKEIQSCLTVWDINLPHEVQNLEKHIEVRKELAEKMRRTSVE
Sequence of Dual specificity protein kinase CLK4 (Q9HAZ1 whole entry): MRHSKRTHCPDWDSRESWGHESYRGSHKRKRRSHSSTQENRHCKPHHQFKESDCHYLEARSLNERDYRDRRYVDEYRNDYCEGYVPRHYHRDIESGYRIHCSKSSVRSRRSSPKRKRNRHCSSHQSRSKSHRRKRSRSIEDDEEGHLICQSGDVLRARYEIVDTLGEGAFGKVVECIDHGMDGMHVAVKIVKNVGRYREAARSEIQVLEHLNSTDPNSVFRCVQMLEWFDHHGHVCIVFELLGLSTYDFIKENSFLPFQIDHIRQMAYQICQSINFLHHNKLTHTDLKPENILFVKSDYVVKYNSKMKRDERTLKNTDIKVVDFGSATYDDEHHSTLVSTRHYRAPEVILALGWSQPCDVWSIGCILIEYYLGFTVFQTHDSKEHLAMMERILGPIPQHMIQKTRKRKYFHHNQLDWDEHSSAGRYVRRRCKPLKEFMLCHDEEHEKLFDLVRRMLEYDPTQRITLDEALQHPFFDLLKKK

Turning to `O=C(NC1=C(Nc2ccc(F)cc2)C(=O)c2ccccc2C1=O)c1ccc(Cl)cc1`, in assay [1], the IC50 is 10200 nM (active).
On to `Oc1nc(Nc2ccc(F)cc2)cc2ccccc12`, for which, in assay [1], the half-maximal inhibitory concentration (IC50) was 6030 nM (active).
Take `CN(C)c1cc(N/N=C\c2ccccc2)nc(N(C)C)n1`: the IC50 in assay [1] was 18800 nM (active).
With `O=C1Nc2cc(-c3ccc(O)cc3)ccc2C1=Cc1ccc[nH]1`, the inhibition constant Ki in assay [2] was 79.4 nM (active); in assay [3] it was > 3980 nM (inactive); in assay [4], 1260 nM (active); in [5] it was 398 nM (active); in assay [6] it was 158 nM (active); in assay [7], > 3160 nM (inactive). The Ki in assay [8] is > 3160 nM (inactive); in assay [9], 7.94 nM (active); in [10], 12.6 nM (active).
On to `NC(COc1cncc(-c2ccc3c(c2)C(=Cc2ccc[nH]2)C(=O)N3)c1)Cc1ccccc1` (stereo not given), for which the inhibitory constant (Ki) was 158 nM (active) in assay [2]; 15.8 nM (active) in [3]; 0.316 nM (active) in [4]; 1 nM (active) in assay [5]; 3.16 nM (active) in [6]; 25.1 nM (active) in assay [7]. Besides, the figures for the Ki in assay [8], in assay [9] and in assay [10] were 0.631 nM (active), 6.31 nM (active) and 0.631 nM (active), respectively.
For `O=C1Cc2cc(-c3ccccc3)cnc2N1`, the Ki in assay [2] is 15800 nM (active); in assay [3] it was 63100 nM (active); in [4] it was 6310 nM (active); in assay [5], 50100 nM (active); in assay [6] it was 50100 nM (active); in assay [7] it was 79400 nM (active). Besides, the Ki in assay [8] was 25100 nM (active); in [9] it was 20000 nM (active); in [10], 31600 nM (active).

For the origin of these results see ChEMBL document CHEMBL1201862, “PubChem BioAssay data set” (2004).
